According to PubChem BioAssay AID256 (DTP/NCI, 2004):
Values joined by “and” are separate entries in the source; they are usually repeats but may differ in a detail not shown here. Equal entries are not always repeated. Inconclusive results and toxic doses are left out.

Tested on: CD2F1 mice, L1210 leukemia ip, survival T/C
Assay: NCI In Vivo Anticancer Drug Screen. Data for tumor model L1210 Leukemia (intraperitoneal) in CD2F1 (CDF1) mice
Settings: higher = longer survival
In short: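 Antitumor effect is scored in animals hosting a serially transplanted tumor. Values compare compound-dosed animals against vehicle-only controls as a simple quotient.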

[1] = endpoint: mean survival time, dose: 100.0 mg/kg/injection, schedule: Q04DX003 (ip), vehicle: saline with Tween-80
[2] = endpoint: mean survival time, dose: 200.0 mg/kg/injection, schedule: Q04DX003 (ip), vehicle: saline with Tween-80
[3] = endpoint: mean survival time, dose: 400.0 mg/kg/injection, schedule: Q04DX003 (ip), vehicle: saline with Tween-80
[4] = endpoint: mean survival time, dose: 75.0 mg/kg/injection, schedule: Q04DX003 (ip), vehicle: saline
[5] = endpoint: mean survival time, dose: 100.0 mg/kg/injection, schedule: Q01DX001 (ip), vehicle: saline with Tween-80
[6] = endpoint: mean survival time, dose: 100.0 mg/kg/injection, schedule: Q01DX009 (ip), vehicle: saline with Tween-80
[7] = endpoint: mean survival time, dose: 200.0 mg/kg/injection, schedule: Q01DX001 (ip), vehicle: saline with Tween-80

For `Nc1ncnc(N)c1NC(=O)c1cccc(Cl)c1`, the T/C (endpoint: mean survival time, dose: 25.0 mg/kg/injection, schedule: Q04DX003 (ip), vehicle: saline with Tween-80) was 100 % of control, the T/C (endpoint: mean survival time, dose: 50.0 mg/kg/injection, schedule: Q04DX003 (ip), vehicle: saline with Tween-80) was 100 % of control and the T/C [1] was 118 % of control and 108 % of control.
`N/C(=N\O)c1cn(C2OC(CO)C(O)C2O)c2ncnc(N)c12` (stereo not given) was tested, and the T/C (endpoint: mean survival time, dose: 8.0 mg/kg/injection, schedule: Q01DX007 (ip), vehicle: saline) was 111 % of control.
With `CC1(C)CC(=O)C2(C)CCC(=O)C=C2C1` (stereo not given) the T/C [1] was 101 % of control, the T/C [2] was 100 % of control and the T/C [3] was 100 % of control.
For `COc1cc2c(cc1O)CCCCC2O` (stereo not given), the T/C (endpoint: mean survival time, dose: 50.0 mg/kg/injection, schedule: Q01DX009 (ip), vehicle: other) was 107 % of control, the T/C (endpoint: mean survival time, dose: 100.0 mg/kg/injection, schedule: Q01DX009 (ip), vehicle: other) was 100 % of control and the T/C (endpoint: mean survival time, dose: 200.0 mg/kg/injection, schedule: Q01DX009 (ip), vehicle: other) was 92 % of control.
For `Nc1cc(NC(c2ccccc2)c2ccccc2)c2[nH]cnc2n1`, the T/C (endpoint: mean survival time, dose: 100.0 mg/kg/injection, schedule: Q01DX001 (ip), vehicle: other) was 91 % of control and the T/C (endpoint: mean survival time, dose: 200.0 mg/kg/injection, schedule: Q01DX001 (ip), vehicle: other) was 95 % of control.
In the case of `CN(C1=CC(=O)C(C)(C)c2ccccc21)C1CCCCC1`, the T/C [1] is reported as 95 % of control, the T/C [2] is reported as 91 % of control and the T/C [3] is reported as 94 % of control.
For `COc1ccc2[nH]c(=O)c3c(c2c1)CCC(OC(=O)c1ccccc1)C3` (stereo not given), the T/C (endpoint: mean survival time, dose: 12.5 mg/kg/injection, schedule: Q01DX009 (ip), vehicle: saline) was 104 % of control, the T/C (endpoint: mean survival time, dose: 18.8 mg/kg/injection, schedule: Q04DX003 (ip), vehicle: saline) was 104 % of control and the T/C (endpoint: mean survival time, dose: 25.0 mg/kg/injection, schedule: Q01DX009 (ip), vehicle: saline) was 97 % of control. For the same compound, the T/C (endpoint: mean survival time, dose: 37.5 mg/kg/injection, schedule: Q04DX003 (ip), vehicle: saline) was 101 % of control, the T/C (endpoint: mean survival time, dose: 50.0 mg/kg/injection, schedule: Q01DX009 (ip), vehicle: saline) was 98 % of control and the T/C [4] was 97 % of control.
In the case of `COC1OCC(N=[N+]=[N-])C(OS(C)(=O)=O)C1OS(C)(=O)=O` (stereo not given), the T/C [5] is reported as 95 % of control, the T/C [6] is reported as 101 % of control and the T/C [7] is reported as 98 % of control and 94 % of control. For the same compound, the T/C (endpoint: mean survival time, dose: 400.0 mg/kg/injection, schedule: Q01DX001 (ip), vehicle: saline with Tween-80) was 94 % of control and 101 % of control and the T/C (endpoint: mean survival time, dose: 400.0 mg/kg/injection, schedule: Q01DX009 (ip), vehicle: saline with Tween-80) was 97 % of control.
`CCOC(=O)Cc1cnc(SC)nc1Nc1ccc(F)cc1` was tested, and the T/C [5] was 90 % of control and the T/C [7] was 95 % of control.
For `C/C=C/CNc1ccc(C)cc1`, the T/C (endpoint: mean survival time, dose: 66.0 mg/kg/injection, schedule: Q01DX009 (ip), vehicle: saline with Tween-80) was 98 % of control, the T/C [6] was 100 % of control and the T/C [1] was 103 % of control. The T/C (endpoint: mean survival time, dose: 150.0 mg/kg/injection, schedule: Q01DX009 (ip), vehicle: saline with Tween-80) was 102 % of control.
`CC(CC(=O)O)C(NC(=O)OCc1ccccc1)C(=O)O` (stereo not given) was tested, and the T/C [4] was 101 % of control, the T/C (endpoint: mean survival time, dose: 150.0 mg/kg/injection, schedule: Q04DX003 (ip), vehicle: saline) was 95 % of control and the T/C (endpoint: mean survival time, dose: 300.0 mg/kg/injection, schedule: Q04DX003 (ip), vehicle: saline) was 95 % of control.
With `CCC1(O)C(=O)OCc2c1cc1n(c2=O)Cc2cc3ccc(C#N)cc3nc2-1` (stereo not given) the T/C (endpoint: median survival time, dose: 2.5 mg/kg/injection, schedule: Q04DX002 (ip), vehicle: saline with Tween-80) was 152 % of control, the T/C (endpoint: median survival time, dose: 5.0 mg/kg/injection, schedule: Q04DX002 (ip), vehicle: saline with Tween-80) was 196 % of control and the T/C (endpoint: median survival time, dose: 10.0 mg/kg/injection, schedule: Q04DX002 (ip), vehicle: saline with Tween-80) was 250 % of control and 365 % of control. For the same compound, the T/C (endpoint: median survival time, dose: 20.0 mg/kg/injection, schedule: Q04DX002 (ip), vehicle: saline with Tween-80) was 101 % of control and 103 % of control.
In the case of `CCCCOCCN1CCN(CCCN2c3ccccc3Sc3ccc(C(F)(F)F)cc32)CC1`, the T/C (endpoint: mean survival time, dose: 2.3 mg/kg/injection, schedule: Q01DX001 (ip), vehicle: saline) is reported as 106 % of control, the T/C (endpoint: mean survival time, dose: 3.5 mg/kg/injection, schedule: Q01DX001 (ip), vehicle: saline) is reported as 100 % of control and the T/C (endpoint: mean survival time, dose: 5.2 mg/kg/injection, schedule: Q01DX001 (ip), vehicle: saline) is reported as 105 % of control. The T/C (endpoint: mean survival time, dose: 7.2 mg/kg/injection, schedule: Q01DX001 (ip), vehicle: saline) was 112 % of control, the T/C (endpoint: mean survival time, dose: 11.0 mg/kg/injection, schedule: Q01DX001 (ip), vehicle: saline) was 107 % of control and the T/C (endpoint: mean survival time, dose: 16.0 mg/kg/injection, schedule: Q01DX001 (ip), vehicle: saline) was 104 % of control.
